Assay results reported in PMC8955938, “c-Myc Protein Level Affected by Unsymmetrical Bisacridines Influences Apoptosis and Senescence Induced in HCT116 Colorectal and H460 Lung Cancer Cells” (International Journal of Molecular Sciences, 2022).

Experiments:
Format in all cases: cell-based, human
HCT116 cells = assay: Accelerated senescence (SA-β-gal), HCT116; conditions: HCT116, IC90 doses, up to 120 h
Description: The accelerated senescence examination was based on the analysis of pH 6.0-dependent β-galactosidase (SA-β-gal) expression together with senescence-related morphology, such as enlarged and flattened cells. HCT116 and H460 cells were seeded in 60 mm plates containing microscope coverslips and treated with UAs for up to 120 h. […] The cells were then washed twice with PBS (pH 6.0) and incubated at pH 6.0 with X-gal (5-bromo-4-chloro-3-indolyl-β-D-[…], substrate for SA-β-gal) staining solution (1 mg/mL X-gal, 40 mmol/L citric acid/sodium phosphate, pH 6.0, 5 mmol/L potassium ferrocyanide, 5 mmol/L potassium ferricyanide, 150 mmol/L NaCl, 2 mmol/L MgCl2). Following overnight incubation at 37 °C, cells were washed twice with PBS and observed under a light microscopy (OLYMPUS BX60; magnification ×200).

H460 cells = assay: Apoptosis in H460, summary of all conducted experiments; conditions: H460, IC90 doses, 120 h, summary in discussion
Description: Nuclear morphology was examined under a fluorescence microscope (OLYMPUS BX60, […]) after staining with Hoechst 33342. Briefly, after drug treatment, HCT116, H460, CCD 841 CoN and MRC-5 cells were spun onto microscopic slides, fixed with methanol:acetic acid (3:1) for 15 min and stained with Hoechst 33342 (1 mg/mL) for 15 min. Cells were regarded as apoptotic based on the presence of condensed, fragmented chromatin. Enlarged cells containing multiple nuclei were considered as typical of mitotic catastrophe.
Annexin V–FITC binding was performed with an Annexin-V Fluos Staining kit (BD Biosciences, San Jose, CA, USA) according to manufacturer’s protocol. […] Cells were incubated for 15 min at room temperature in the dark, then diluted with 400 µL of binding buffer and analyzed by flow cytometry with FACS Accuri C6 (BD, San Jose, CA, USA). Cells with low FITC and PI fluorescence were considered viable. Cells that presented high FITC fluorescence but low PI fluorescence were regarded as early apoptotic. Late apoptotic cells presented high FITC and PI fluorescence. Necrotic cells had low FITC fluorescence and high PI fluorescence.
Caspase-3 activity was determined using Alexa Fluor 647-conjugated anti-active caspase-3 antibody (BD Biosciences, San Diego, CA, USA) according to the manufacturer’s instructions. […]

[1] = tested on: KRAS gene expression in HCT116 cells; assay: RT-PCR KRAS expression in HCT116; conditions: HCT116, IC90 doses, up to 120 h
Description: HCT116, H460, CCD 841 CoN and MRC-5 cells after treatment with UAs were collected, washed twice with ice-cold PBS and resuspended in […] of PBS. mRNA was isolated using High Pure RNA Isolation Kit according to the manufacturer’s instructions (Roche, Basel, Switzerland). Briefly, cells were lysed in lysis-binding buffer and transferred to a filter tube. Contaminating DNA was removed by 15 min incubation of the filter tube with DNase I solution. The filter tube was washed once with buffer I and twice with buffer II, and after centrifugation, total RNA was eluted using the elution buffer. RNA concentration was determined by NanoDrop One (Thermo Scientific); 1 µg of RNA was reverse transcribed using Transcriptor First Strand cDNA Synthesis Kit according to the manufacturer’s instructions (Roche) in 20 µL of reaction containing 1 µg of RNA, […] anchored-oligo(dT)18Primer, 8 mM MgCl2, 20 U of Protector RNase Inhibitor, deoxynucleotide mix (1 mM each) and 22 U of Transcriptor Reverse Transcriptase. The reverse transcription reaction was carried out for 30 min at 55 °C and stopped by heating to 85 °C for 5 min and placing on ice. The cDNA solution was stored at −20 °C until use. […] The relative expression level of MYC and KRAS was quantified using comparative method […]. The results were obtained from three independent experiments, each of which was analyzed at least twice.

## O=c1c2ccccc2n2cnc3ccc(NCCCN4CCN(CCCNc5c6ccccc6nc6cccc([N+](=O)[O-])c56)CC4)c1c32 [Compound C-2041]
HCT116 cells
  accelerated senescence (SA-β-gal blue staining): a few cells with characteristic blue color were observed

## Cc1ccc([N+](=O)[O-])c2c(NCCCN(C)CCCNc3ccc4ncn5c6ccc(O)cc6c(=O)c3c45)c3ccccc3nc12 [Compound C-2045]
H460 cells
  treated cells that underwent apoptosis: about 60%

## Cc1ccc([N+](=O)[O-])c2c(NCCCN(C)CCCNc3ccc4ncn5c6ccccc6c(=O)c3c45)c3ccccc3nc12 [Compound C-2053]
[1]
  KRAS expression compared to untreated control: significant difference
H460 cells
  treated cells that underwent apoptosis: about 60%
